Test results from PMC5423244, “Synthesis and Biological Evaluation of N-(5-(pyridin-2-yl)-1,3,4-thiadiazol-2-yl)benzamide Derivatives as Lipoxygenase Inhibitor with Potential Anticancer Activity” (Iranian Journal of Pharmaceutical Research : IJPR, 2017).

Target: T1, SLO; 15-lipoxygenase-1 (15-LOX-1) (Glycine max, UniProt P08170)
T1 construct: gene LOX1.1; SLO (abbreviation not spelt out); the introduction and aim speak of human 15-LO-1
T1 sequence (P08170 1-839): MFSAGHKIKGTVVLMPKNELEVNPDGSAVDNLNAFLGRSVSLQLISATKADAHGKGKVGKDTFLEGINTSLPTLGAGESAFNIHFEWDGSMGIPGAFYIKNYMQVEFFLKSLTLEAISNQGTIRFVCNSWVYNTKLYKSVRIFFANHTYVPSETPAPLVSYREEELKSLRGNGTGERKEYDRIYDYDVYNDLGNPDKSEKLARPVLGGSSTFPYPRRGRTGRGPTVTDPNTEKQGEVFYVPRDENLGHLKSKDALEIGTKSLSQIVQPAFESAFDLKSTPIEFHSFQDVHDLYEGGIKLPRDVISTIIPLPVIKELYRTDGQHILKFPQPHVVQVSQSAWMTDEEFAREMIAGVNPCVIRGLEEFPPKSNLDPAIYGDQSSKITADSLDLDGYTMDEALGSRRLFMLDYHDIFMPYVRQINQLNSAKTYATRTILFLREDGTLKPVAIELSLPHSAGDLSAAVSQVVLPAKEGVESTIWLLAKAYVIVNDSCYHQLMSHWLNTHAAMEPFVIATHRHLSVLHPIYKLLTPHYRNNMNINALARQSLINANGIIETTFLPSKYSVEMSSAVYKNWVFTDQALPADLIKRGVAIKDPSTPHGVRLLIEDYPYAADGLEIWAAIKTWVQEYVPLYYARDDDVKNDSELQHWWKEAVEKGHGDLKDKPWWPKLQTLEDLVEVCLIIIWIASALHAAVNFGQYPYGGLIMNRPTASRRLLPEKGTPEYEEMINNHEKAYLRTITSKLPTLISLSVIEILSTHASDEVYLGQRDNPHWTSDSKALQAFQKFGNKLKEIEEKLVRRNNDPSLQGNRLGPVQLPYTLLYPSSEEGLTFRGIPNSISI
Test: linoleic acid hydroperoxide by MBTH/DMAB/hemoglobin colour reaction, […] nm
Type: biochemical

Compound | inhibition at 200 µM [%]
O=C(Nc1nnc(-c2ccccn2)s1)c1ccccc1Cl [4a, 2-Chloro-N-(5-(pyridin-2-yl)-1,3,4-thiadiazol-2-yl)benzamide] | 8
O=C(Nc1nnc(-c2ccccn2)s1)c1cccc(Cl)c1 [4b, 3-Chloro-N-(5-(pyridin-2-yl)-1,3,4-thiadiazol-2-yl)benzamide] | 8
O=C(Nc1nnc(-c2ccccn2)s1)c1ccc(Cl)cc1 [4c, 4-Chloro-N-(5-(pyridin-2-yl)-1,3,4-thiadiazol-2-yl)benzamide] | 12
O=C(Nc1nnc(-c2ccccn2)s1)c1ccccc1F [4d, 2-Fluoro-N-(5-(pyridin-2-yl)-1,3,4-thiadiazol-2-yl)benzamide] | 17
O=C(Nc1nnc(-c2ccccn2)s1)c1cccc(F)c1 [4e, 3-Fluoro-N-(5-(pyridin-2-yl)-1,3,4-thiadiazol-2-yl)benzamide] | 13
O=C(Nc1nnc(-c2ccccn2)s1)c1ccc(F)cc1 [4f, 4-Fluoro-N-(5-(pyridin-2-yl)-1,3,4-thiadiazol-2-yl)benzamide] | 25
COc1ccccc1C(=O)Nc1nnc(-c2ccccn2)s1 [4j, 2-Methoxy-N-(5-(pyridin-2-yl)-1,3,4-thiadiazol-2-yl)benzamide] | 28
COc1cccc(C(=O)Nc2nnc(-c3ccccn3)s2)c1 [4k, 3-Methoxy-N-(5-(pyridin-2-yl)-1,3,4-thiadiazol-2-yl)benzamide] | 26
COc1ccc(C(=O)Nc2nnc(-c3ccccn3)s2)cc1 [4l, 4-Methoxy-N-(5-(pyridin-2-yl)-1,3,4-thiadiazol-2-yl)benzamide] | 14
